# Source: patent US20050176655A1, “Novel macrolide derivatives havaing effect of potentiating antifungal activity” (priority 2002, published 2005)
# What was measured:
# Test in all cases: Paper disk method, enhancing action for activities of azole antifungal agents
# Format in all cases: cell-based
# [1] = tested on: Candida albicans ATCC 64548; conditions: 24 hours; for Inhibition activity (inhibition ring mm) C. albicans ATCC 64548 GYM / Transparency of the inhibition ring C. albicans ATCC 64548 GYM: miconazole 0.03 μg/ml
# Method: (§1) Test organisms used were Candida albicans ATCC 64548, fluconazole resistant Candida albicans ATCC 64550 and Aspergillus niger ATCC 6275. Candida spp. were cultured in Waksman broth (glucose 2.0%, peptone 0.5%, dry yeast 0.3%, meat extract 0.5%, NaCl 0.5% and CaCO3 0.3%, pH 7.0) at 27° C. for 40 hours, then 0.1% thereof was inoculated on GY agar medium (glucose 1.0%, yeast extract 0.5% and agar 0.8%, pH 6.0). Spore suspension 0.2% of Aspergillus niger ATCC 6275 was inoculated on GY agar medium.
# (§2) Azole antifungal agents used were miconazole (Sigma Inc., the U.S.) and fluconazole (ICN Pharmaceuticals, Inc., the U.S.), and were added at concentrations without affecting growth on each test organisms follows.
# Candida albicans ATCC 64548: miconazole 0.03 μg/ml or fluconazole 0.5 μg/ml.
# (§3) In the above medium, a medium added with miconazole to GY medium (control) is designated as GYM, and a medium added with fluconazole is designated as GYF. Activities were assessed by means of paper disk method (thickness: 8 mm, ADVANTEC MFS INC., Japan). Diameter of inhibition ring is expressed with mm unit after culturing Candida spp. for 24 hours and Aspergillus niger ATCC 6275 for 48 hours. Transparency of the inhibition ring is assessed with 5 degrees of A, B, C, D and E (transparence<A<B<C<D<E<opaque).
# [2] = tested on: fluconazole resistant Candida albicans ATCC 64550; conditions: 24 hours; for Inhibition activity (inhibition ring mm) C. albicans ATCC 64550 GYM / Transparency of the inhibition ring C. albicans ATCC 64550 GYM: miconazole 0.15 μg/ml; for Inhibition activity (inhibition ring mm) C. albicans ATCC 64550 GYF / Transparency of the inhibition ring C. albicans ATCC 64550 GYF: fluconazole 30 μg/ml
# Method: as §1, §2
# Candida albicans ATCC 64550: miconazole 0.15 μg/ml or fluconazole 30 μg/ml.
# as §3
# [3] = tested on: Aspergillus niger ATCC 6275; conditions: 48 hours; for Inhibition activity (inhibition ring mm) A. niger ATCC 6275 GYM / Transparency of the inhibition ring A. niger ATCC 6275 GYM: miconazole 0.1 μg/ml; for Inhibition activity (inhibition ring mm) A. niger ATCC 6275 GYF / Transparency of the inhibition ring A. niger ATCC 6275 GYF: fluconazole 10 μg/ml; for Inhibition activity (inhibition ring mm) A. niger ATCC 6275 GY / Transparency of the inhibition ring A. niger ATCC 6275 GY: GY medium (control, no azole)
# Method: as §1, §2
# Aspergillus niger ATCC 6275: miconazole 0.1 μg/ml or fluconazole 10 μg/ml.
# as §3
# [4] = 50 μg/8 mm disk, GYF, fluconazole 0.5 μg/ml
Compound,Inhibition activity (inhibition ring mm) A. niger ATCC 6275 GYM ([3]; 50 μg/8 mm disk) [mm],Transparency of the inhibition ring A. niger ATCC 6275 GYM ([3]; 50 μg/8 mm disk),Inhibition activity (inhibition ring mm) C. albicans ATCC 64548 GYM ([1]; 50 μg/8 mm disk) [mm],Transparency of the inhibition ring C. albicans ATCC 64548 GYM ([1]; 50 μg/8 mm disk),Inhibition activity (inhibition ring mm) A. niger ATCC 6275 GYF ([3]; 10 μg/8 mm disk) [mm],Transparency of the inhibition ring A. niger ATCC 6275 GYF ([3]; 10 μg/8 mm disk),Inhibition activity (inhibition ring mm) A. niger ATCC 6275 GYF ([3]; 50 μg/8 mm disk) [mm],Transparency of the inhibition ring A. niger ATCC 6275 GYF ([3]; 50 μg/8 mm disk),other results
"CCC(OC(C)=O)C(C)(O)C1OC(=O)C(C)C(OC2CC(C)(OC)C(OC(C)=O)C(C)O2)C(C)C(OC2OC(C)CC(N(C)C)C2O)C2(C)CC(C)=C(O2)C1C (centres unmarked) [Compound 755, 4″,13-Di-O-acetyl-8,9-Anhydro-pseudo erythromycin A 6,9-hemiketal]",16,E (Growth of test organism was inhibited 35% or less.),–,–,–,–,–,–,Inhibition activity (inhibition ring mm) C. albicans ATCC 64548 GYM ([1]; 100 μg/8 mm disk): 17 mm; Transparency of the inhibition ring C. albicans ATCC 64548 GYM ([1]; 100 μg/8 mm disk): D (Growth of test organism was inhibited 35% or more and 55% or less.); Inhibition activity (inhibition ring mm) C. albicans ATCC 64550 GYM ([2]; 100 μg/8 mm disk): 10 mm; Transparency of the inhibition ring C. albicans ATCC 64550 GYM ([2]; 100 μg/8 mm disk): E (Growth of test organism was inhibited 35% or less.)
"CCC1OC(=O)C(C)C(OC2CC(C)(OC)C(O)C(C)O2)C(C)C(OC2OC(C)CC(N(C)C)C2O)C(C)(O)CC(C)C(=NOCC=CCNCCN)C(C)C(O)C1(C)O (centres unmarked) [Compound 763, 9(E)-4-(aminoethylamino)-2-butenyloxime-erythromycin A]",–,–,16,C (Growth of test organism was inhibited 55% or more and 75% or less.),12,E (Growth of test organism was inhibited 35% or less.),15,E (Growth of test organism was inhibited 35% or less.),"Inhibition activity (inhibition ring mm) C. albicans ATCC 64548 GYF [1, 4]: 10 mm; Transparency of the inhibition ring C. albicans ATCC 64548 GYF [1, 4]: D (Growth of test organism was inhibited 35% or more and 55% or less.)"
"CC[C@H]1OC(=O)[C@H](C)[C@@H](O[C@H]2C[C@@](C)(OC)[C@@H](O)[C@H](C)O2)[C@H](C)[C@@H](O[C@@H]2O[C@H](C)C[C@H](N(C)C/C=C/CO/N=C3\[C@H](C)C[C@@](C)(O)[C@H](O[C@@H]4O[C@H](C)C[C@H](N(C)C)[C@H]4O)[C@@H](C)[C@H](O[C@H]4C[C@@](C)(OC)[C@@H](O)[C@H](C)O4)[C@@H](C)C(=O)O[C@H](CC)[C@@](C)(O)[C@H](O)[C@H]3C)[C@H]2O)[C@](C)(O)C[C@@H](C)C(=O)[C@H](C)[C@@H](O)[C@]1(C)O [Compound 765, 3′-de-N-methyl-3′-N-{4-9(E)oxime-erythro-mycin A}-2(E)-butenyl-erythromycin A]",–,–,14,E (Growth of test organism was inhibited 35% or less.),14,E (Growth of test organism was inhibited 35% or less.),21,E (Growth of test organism was inhibited 35% or less.),Inhibition activity (inhibition ring mm) A. niger ATCC 6275 GYM ([3]; 100 μg/8 mm disk): 14 mm; Transparency of the inhibition ring A. niger ATCC 6275 GYM ([3]; 100 μg/8 mm disk): E (Growth of test organism was inhibited 35% or less.)
"C=CCCON=C1C(C)CC(C)(O)C(OC2OC(C)CC(N(C)C)C2O)C(C)C(OC2CC(C)(OC)C(O)C(C)O2)C(C)C(=O)OC(CC)C(C)(O)C(O)C1C (centres unmarked) [Compound 769, 9(E)-3-butenyloxime-erythromycin A]",–,–,–,–,11,E (Growth of test organism was inhibited 35% or less.),16,E (Growth of test organism was inhibited 35% or less.),Inhibition activity (inhibition ring mm) C. albicans ATCC 64548 GYM ([1]; 100 μg/8 mm disk): 14 mm; Transparency of the inhibition ring C. albicans ATCC 64548 GYM ([1]; 100 μg/8 mm disk): E (Growth of test organism was inhibited 35% or less.); Inhibition activity (inhibition ring mm) A. niger ATCC 6275 GY ([3]; 50 μg/8 mm disk): 10 mm; Transparency of the inhibition ring A. niger ATCC 6275 GY ([3]; 50 μg/8 mm disk): E (Growth of test organism was inhibited 35% or less.)
"CCC1OC1(C)C1OC(=O)C(C)C(OC2CC(C)(OC)C(OS(=O)(=O)c3ccccc3)C(C)O2)C(C)C(OC2OC(C)CC(N(C)C)C2OC(C)=O)C2(C)CC(C)=C(O2)C1C (centres unmarked) [Compound 774, 2′-O-acetyl-4″-O-benzenesulfonyl-12,13-epoxy-8,9-Anhydro-pseudoerythromycin A 6,9-hemiketal]",18,D (Growth of test organism was inhibited 35% or more and 55% or less.),–,–,14,E (Growth of test organism was inhibited 35% or less.),17,E (Growth of test organism was inhibited 35% or less.),Inhibition activity (inhibition ring mm) C. albicans ATCC 64550 GYF ([2]; 10 μg/8 mm disk): 13 mm; Transparency of the inhibition ring C. albicans ATCC 64550 GYF ([2]; 10 μg/8 mm disk): A (Growth of test organism was inhibited 95% or more.); Inhibition activity (inhibition ring mm) C. albicans ATCC 64550 GYM ([2]; 10 μg/8 mm disk): 14 mm; Transparency of the inhibition ring C. albicans ATCC 64550 GYM ([2]; 10 μg/8 mm disk): A (Growth of test organism was inhibited 95% or more.); Inhibition activity (inhibition ring mm) C. albicans ATCC 64550 GYF ([2]; 50 μg/8 mm disk): 17 mm; Transparency of the inhibition ring C. albicans ATCC 64550 GYF ([2]; 50 μg/8 mm disk): A (Growth of test organism was inhibited 95% or more.); Inhibition activity (inhibition ring mm) C. albicans ATCC 64550 GYM ([2]; 50 μg/8 mm disk): 17 mm; Transparency of the inhibition ring C. albicans ATCC 64550 GYM ([2]; 50 μg/8 mm disk): A (Growth of test organism was inhibited 95% or more.); Inhibition activity (inhibition ring mm) A. niger ATCC 6275 GYM ([3]; 10 μg/8 mm disk): 13 mm; Transparency of the inhibition ring A. niger ATCC 6275 GYM ([3]; 10 μg/8 mm disk): E (Growth of test organism was inhibited 35% or less.)
"CCC1OC1(C)C1OC(=O)C(C)C(OC2CC(C)(OC)C(OS(=O)(=O)Cc3ccccc3)C(C)O2)C(C)C(OC2OC(C)CC(N(C)C)C2OC(C)=O)C2(C)CC(C)=C(O2)C1C (centres unmarked) [Compound 775, 2′-O-acetyl-4″-O-benzylsulfonyl-12,13-epoxide-8,9-anhydro-pseudoerythromycin A. 6,9-hemiketal]",16,D (Growth of test organism was inhibited 35% or more and 55% or less.),10,E (Growth of test organism was inhibited 35% or less.),16,E (Growth of test organism was inhibited 35% or less.),16,E (Growth of test organism was inhibited 35% or less.),–
"CCC1OC1(C)C1OC(=O)C(C)C(OC2CC(C)(OC)C(OS(=O)(=O)Cc3ccccc3)C(C)O2)C(C)C(OC2OC(C)CC(N(C)C)C2O)C2(C)CC(C)=C(O2)C1C (centres unmarked) [Compound 780, 4″-O-benzylsulfonyl-12,13-epoxy-8,9-anhydro-pseudoerythromycin A. 6,9-hemiketal]",14,E (Growth of test organism was inhibited 35% or less.),–,–,11,E (Growth of test organism was inhibited 35% or less.),12,E (Growth of test organism was inhibited 35% or less.),Inhibition activity (inhibition ring mm) C. albicans ATCC 64550 GYF ([2]; 50 μg/8 mm disk): 14 mm; Transparency of the inhibition ring C. albicans ATCC 64550 GYF ([2]; 50 μg/8 mm disk): C (Growth of test organism was inhibited 55% or more and 75% or less.); Inhibition activity (inhibition ring mm) C. albicans ATCC 64550 GYM ([2]; 50 μg/8 mm disk): 12 mm; Transparency of the inhibition ring C. albicans ATCC 64550 GYM ([2]; 50 μg/8 mm disk): C (Growth of test organism was inhibited 55% or more and 75% or less.); Inhibition activity (inhibition ring mm) A. niger ATCC 6275 GYM ([3]; 10 μg/8 mm disk): 14 mm; Transparency of the inhibition ring A. niger ATCC 6275 GYM ([3]; 10 μg/8 mm disk): E (Growth of test organism was inhibited 35% or less.); Inhibition activity (inhibition ring mm) A. niger ATCC 6275 GY ([3]; 50 μg/8 mm disk): 12 mm; Transparency of the inhibition ring A. niger ATCC 6275 GY ([3]; 50 μg/8 mm disk): E (Growth of test organism was inhibited 35% or less.)
